Consider 14 compounds from patent US9617216B2, “Antifungal oxodihydropyridinecarbohydrazide derivative” (Daewoong Pharmaceutical Co., Ltd., priority 2013, dated 2017).

≈ marks a conversion by molar mass, not a printed value.

What all share (type): cell-based
For experiment [1], the system named is Candida albicans. The experiment is described as follows: In vitro antifungal activity test (MIC), Candida albicans. The settings on record: concentration at which growth is inhibited by 80% vs negative control, 35° C., 24 hours, RPMI 1640, alama blue; for MIC80: Candida albicans. As for the experimental part:
(§1) The antifungal activities of the compounds of the present invention were evaluated using Candida albicans as yeast fungus, and Aspergillus fumigatus as a filamentous fungus. The above fungi used were all purchased from American Type Culture Collection (ATCC). The strains used in the experiment were inoculated into a Sabouraud dextrose agar medium, and then cultured at 35° C. for a sufficient period of time, e.g., 24 hours for Candida albicans, and about 7 days for Aspergillus fumigatus. As for Candida albicans, about 5 to 7 single colonies were taken from the cultured medium, sufficiently suspended in 1 ml of 0.85% sterile saline solution, and adjusted to have an optical density of 0.095 to 0.107 at 530 nm. A preparation of a strain diluent was diluted in Roswell park memorial institute (RPMI) 1640 medium at a 1:10 ratio, and the resultant was diluted again at a 1:100 ratio to obtain an inoculation preparation for Candida albicans with a concentration of 1.0×10^3 to 5.0×10^3 CFU/mL. As for Aspergillus fumigatus, the cultured Sabouraud dextrose agar was added with 1 mL of 0.2% Tween 20 diluted with 0.85% sterile saline solution, and then the plate was shaken to detach conidium from the plate. The solution collected from the plate surface was transferred into a sterile tube, and placed at room temperature for 5 minutes to deposit heavy substances. The resulting supernatant was transferred into the sterile tube, sufficiently suspended for about 15 seconds, and prepared a strain diluent with a concentration of 0.4×10^6 to 5.0×10^6 CFU/mL using a hemocytometer. The thus prepared strain diluent was diluted in RPMI 1640 medium at a 1:100 ratio to obtain an inoculation preparation for Aspergillus fumigatus. Candida albicans was cultured at 35° C. for 24 hours and Aspergillus fumigatus was cultured at 35° C. for 48 hours, and the concentrations, at which growth is inhibited by 80% or 50% compared to a negative control group, were determined using alama blue color developing reagent. All experiments were repeated twice for each concentration, and the results of antifungal activities (MIC80 MIC50 μg/mL) are shown in Tables 1 to 2.

The subject of experiment [2] is Candida albicans. Nature of the experiment: In vitro fungicidal activity test (MFC, minimum fungicidal concentration). To be noted: minimum concentration with no fungal growth, Sabouraud dextrose agar plate, 35° C., 48 hours, naked eye; for MFC: Candida albicans. As for the experimental part: As samples of fungicidal agents, 10 mM stock solutions were diluted 10-fold by adding with RPMI 1640 medium, followed by a 5-fold serial dilution, and used as the highest concentration for evaluation of antifungal activity (MIC). The samples with the highest concentration of the fungicidal agents were treated with a 2-fold serial dilution into 11 different concentrations, and the final concentrations were determined by mixing with the strains at a 1:1 ratio. In particular, the concentration of dimethylsulfoxide used as an excipient was made to a final 1% (VN). The evaluations of the fungicidal activity of Candida albicans were performed using a test plate already completed of antifungal activity, from the highest concentration of a given sample to the concentration right next to the concentration determined to be MIC. Test solutions at each concentration were pipetted about 5 times, all were collected (about a total of 225 μL), and added into a 12-well Sabouraud dextrose agar plate.

Experiment [3] relates to Aspergillus fumigatus. The experiment is described as follows: In vitro antifungal activity test (MIC), Aspergillus fumigatus. To be noted: concentration at which growth is inhibited by 50% vs negative control, 35° C., 48 hours, RPMI 1640, alama blue; for MIC50: Aspergillus fumigatus. As for the experimental part:
as §1

Broadly, the MIC80 is an inhibitory concentration at the 80% level, which refers to growth in some studies and to a panel of isolates in others. Read a high MIC80 as weaker potency. Broadly, the MFC is the lowest tested concentration that kills the fungus rather than only halting it. As to `Cn1cc(C(=O)NNc2cccc(F)c2)ccc1=O` [Example 2, N′-(3-fluorophenyl)-1-methyl-6-oxo-1,6-dihydropyridine-3-carbohydrazide], in experiment [1], the MIC80 amounted to 0.02 mg/L (≈ 0.0766 µM). In addition, in experiment [2], the minimal fungicidal concentration (MFC) amounted to 0.1 mg/L (≈ 0.383 µM).

As a reminder, the MIC50 is an inhibitory concentration at the 50% level, which refers to growth in some studies and to a panel of isolates in others. High values mean lower susceptibility, low ones higher susceptibility. For the compound `Cn1cc(C(=O)NNc2cc(F)cc(F)c2)ccc1=O` [Example 13, N′-(3,5-difluorophenyl)-1-methyl-6-oxo-1,6-dihydropyridine-3-carbohydrazide], the MIC80 in experiment [1] worked out at 0.03 mg/L (≈ 0.107 µM). The compound further yielded a minimum fungicidal concentration (MFC) in experiment [2] of 0.1 mg/L (≈ 0.358 µM). The compound further had an MIC50 in experiment [3] of 0.44 mg/L (≈ 1.58 µM).

Regarding `COc1ncc(NNC(=O)c2ccc(=O)n(C)c2)cc1F` [Example 21, N′-(5-fluoro-6-methoxypyridine-3-yl)-1-methyl-6-oxo-1,6-dihydropyridine-3-carbohydrazide], the MIC80 in experiment [1] amounted to 0.03 mg/L (≈ 0.103 µM). Also, the MFC in experiment [2] was determined as 0.1 mg/L (≈ 0.342 µM). The same compound came in with an MIC50 in experiment [3] of 0.5 mg/L (≈ 1.71 µM).

For the compound `O=C(NNc1ccc(F)cc1)c1c(Cl)cc(=O)n2c1CCC2` [Example 34, 7-chloro-N′-(4-fluorophenyl)-5-oxo-1,2,3,5-tetrahydroindolizine-8-carbohydrazide], in experiment [1], the MIC80 was 0.25 mg/L (≈ 0.777 µM). In experiment [3], this compound gave an MIC50 of 1 mg/L (≈ 3.11 µM).

The compound `COc1ncc(NNC(=O)c2cc(-c3ccc(F)cc3)c(=O)n(C)c2)cc1F` [Example 37, N′-(5-fluoro-6-methoxypyridine-3-yl)-5-(4-fluorophenyl)-1-methyl-6-oxo-1,6-dihydropyridine-3-carbohydrazide] yielded an MIC80 in experiment [1] of 0.04 mg/L (≈ 0.104 µM). Also, in experiment [2], the minimum fungicidal concentration (MFC) came to 0.1 mg/L (≈ 0.259 µM). The MIC50 in experiment [3] came out at 0.3 mg/L (≈ 0.776 µM).

In experiment [1], `COc1ncc(NNC(=O)c2cc(-c3ccc(Cl)cc3)c(=O)n(C)c2)cc1F` [Example 38, 5-(4-chlorophenyl)-N′-(5-fluoro-6-methoxypyridine-3-yl)-1-methyl-6-oxo-1,6-dihydropyridine-3-carbohydrazide] had an MIC80 of 0.02 mg/L (≈ 0.0497 µM). Also, the MFC in experiment [2] turned out to be 0.1 mg/L (≈ 0.248 µM). The MIC50 in experiment [3] turned out to be 0.3 mg/L (≈ 0.745 µM).

Turning to `COc1ncc(NNC(=O)c2cc(-c3ccc(C(F)(F)F)cc3)c(=O)n(C)c2)cc1F` [Example 39, N′-(5-fluoro-6-methoxypyridine-3-yl)-1-methyl-6-oxo-5-(4-(trifluoromethyl)phenyl)-1,6-dihydropyridine-3-carbohydrazide], the MIC80 in experiment [1] came out at 0.04 mg/L (≈ 0.0917 µM). The MFC in experiment [2] came out at 0.2 mg/L (≈ 0.458 µM). Also, the MIC50 in experiment [3] is 0.7 mg/L (≈ 1.6 µM).

For the compound `COc1ncc(NNC(=O)c2cc(-c3ccc(C#N)cc3)c(=O)n(C)c2)cc1F` [Example 40, 5-(4-cyanophenyl)-N′-(5-fluoro-6-methoxypyridine-3-yl)-1-methyl-6-oxo-1,6-dihydropyridine-3-carbohydrazide], in experiment [1], the MIC80 is 0.04 mg/L (≈ 0.102 µM). The compound further came in with a minimal fungicidal concentration (MFC) in experiment [2] of 0.2 mg/L (≈ 0.508 µM).

For `COc1ncc(NNC(=O)c2ccc(=O)n(-c3cccc(Cl)c3)c2)cc1F` [Example 48, 1-(3-chlorophenyl)-N′-(5-fluoro-6-methoxypyridine-3-yl)-6-oxo-1,6-dihydropyridine-3-carbohydrazide], the MIC80 in experiment [1] is 0.04 mg/L (≈ 0.103 µM). The compound further came in with an MIC50 in experiment [3] of 0.6 mg/L (≈ 1.54 µM).

With `O=C(NNc1ccc(F)cc1F)c1ccc(=O)n(Cc2cscn2)c1` [Example 49, N′-(2,4-difluorophenyl)-6-oxo-1-(thiazol-4-ylmethyl)-1,6-dihydropyridine-3-carbohydrazide], the MIC80 in experiment [1] is 0.28 mg/L (≈ 0.773 µM). The compound also registered an MIC50 in experiment [3] of 0.3 mg/L (≈ 0.828 µM).

With `O=C(NNc1cc(F)cc(F)c1)c1ccc(=O)n(Cc2ccc(C(F)(F)F)nc2)c1` [Example 53, N′-(3,5-difluorophenyl)-6-oxo-1-((6-(trifluoromethyl)pyridine-3-yl)methyl)-1,6-dihydropyridine-3-carbohydrazide], the MIC80 in experiment [1] stood at 0.04 mg/L (≈ 0.0943 µM). In addition, in experiment [3], the MIC50 is 0.7 mg/L (≈ 1.65 µM).

In experiment [1], `O=C(NNc1ccc(F)cc1F)c1ccc(=O)n(Cc2ccc(C(F)(F)F)nc2)c1` [Example 54, N′-(2,4-difluorophenyl)-6-oxo-1-((6-(trifluoromethyl)pyridine-3-yl)methyl)-1,6-dihydropyridine-3-carbohydrazide] showed an MIC80 of 0.08 mg/L (≈ 0.189 µM). The MIC50 in experiment [3] was 0.7 mg/L (≈ 1.65 µM).

For the compound `CC[C@H](C)C[C@H](C)CCCCCCCCC(=O)N[C@H]1C[C@@H](O)[C@@H](NCCN)NC(=O)[C@@H]2[C@@H](O)CCN2C(=O)[C@H]([C@H](O)CCN)NC(=O)[C@H]([C@H](O)[C@@H](O)c2ccc(O)cc2)NC(=O)[C@@H]2C[C@@H](O)CN2C(=O)[C@H]([C@@H](C)O)NC1=O` [caspofungin, reference compound], the “Candida albicans MIC80” value in experiment [1] was 0.25 mg/L. The “Candida albicans MFC” value in experiment [2] stood at 4 mg/L. In experiment [3], the “Aspergillus fumigatus MIC50” value worked out at 0.3 mg/L.

For `OC(Cn1cncn1)(Cn1cncn1)c1ccc(F)cc1F` [fluconazole, reference compound], in experiment [1], the MIC80 is 0.25 mg/L (≈ 0.816 µM). This compound also returned an MFC in experiment [2] greater than 32 mg/L. In experiment [3], this compound came in with an MIC50 greater than 32 mg/L.
